Entries after “also recorded” stand apart in the source; their conditions may differ. No end group written: not given here.
What was measured:
[1] = tested on: SCNN1B mice; experiment: SCNN1B (βENaC) overexpressing mice, chronic pulmonary inflammation; type: in vivo
Protocol: SCNN1B and littermate control mice were exposed to ELD607 or vehicle intranasally on a daily basis for 11 days, starting on day 1 post-partum.
FIG. 32 panel A: Mice were infected with P. aeruginosa for 24 h; then, 0.5 mg/kg ELD607 was added intratracheally. BAL was collected 24 h later to determine cell counts. SCNN1B mice were given 0.5 mg/kg ELD607 daily for 11 days before sacrifice and BAL collection. FIG. 32 panel B: Survival of bENaC mice.
Additional models were tested such as the house dust mite (HDM) allergic lung inflammation model (FIG. 20); and SCNN1B-overexpression, wherein mice develop mucus obstruction and spontaneous pulmonary inflammation (FIG. 21).
Repeated ELD607 exposure reduces chronic inflammation in βENaC overexpressing mice. We added ELD607 to βENaC overexpressing mice, which spontaneously develop chronic infection and neutrophilia and have increased mortality (FIG. 32, panel A).

[2] = tested on: Primary human bronchial epithelial cultures; experiment: Cytotoxicity and transepithelial resistance in primary human bronchial epithelial cultures; type: cell-based; details: 1 mM, 24 h
Protocol: FIG. 28 panels C and D show cell viability per arbitrary units (left) and transepithelial resistance (right) of vehicle vs. ELD607 before and after treatment.
ELD607 is non-toxic in vitro and in vivo. To investigate potential cytotoxic effects of ELD607, […] were exposed to 100 μM ELD607 for 24 h. Cytotoxicity was assessed by exposing cells to calcein to label live cells and fluorescence read by multi-plate reader. […] Primary human bronchial epithelial cultures were exposed to 1 mM ELD607 or vehicle control (saline) for 24 h. Cytotoxicity was assessed by confocal microscopy using calcein and propidium iodide to label live and dead cells respectively. […] Transepithelial resistance was also measured before and after treatment as a measure of epithelial integrity.

[3] = Lung retention and blood exposure after intratracheal dosing in mice; details: mouse, in vivo
Protocol: FIG. 30 panels B and C show % ELD607 recovered in BAL (FIG. 30 panel B) and blood (FIG. 30 panel C).
ELD607 is retained in the lung lumen. ELD607-TAMRA or vehicle (saline) was administered to mice intratracheally (0.5 mM, 1 h). Lungs were isolated, fixed, clarified and imaged using light-sheet fluorescence microscopy. […] We then dosed mice with 10 mg/kg ELD607 and collected BAL and blood. ELD607 levels declined over time in the BAL and plateaued with ˜10% of the initial dose detected after 2 h (FIG. 30, panel B).

[4] = tested on: P. aeruginosa, Staphylococcus aureus, and Haemophilus influenzae; experiment: Murine bacterial infection models (three organisms); type: in vivo, mice
Protocol: Mice were dosed intranasally with P. aeruginosa (PA), S. aureus (Sa), or H. influenzae followed by vehicle (saline) or 0.5 mg/kg of ELD100 or ELD607 per mouse. FIG. 19 panels A, F, and K show total cell counts; FIG. 19 panels B, G, and L show BAL macrophages; FIG. 19 panels C, H, and M show BAL neutrophils; FIG. 19 panels D, I, and N show whole lung CFUs; and FIG. 19 panels E, J, and O show spleen CFUs. Top row, P. aeruginosa, middle row, S. aureus, bottom row, H. influenzae. * p<0.05 different from naïve mice; #p<0.05 different from infected mice.
ELD607 reduces neutrophilia and increases lung bacterial clearance in multiple murine bacterial infection models. Neutrophilia is a common feature of both Gram-positive and Gram-negative lung infections. Accordingly, further studies were performed with P. aeruginosa, Staphylococcus aureus, and Haemophilus influenzae (FIG. 19 panels B, C, G, H, L, and M). After infection with all three organisms, significant levels of bacteria were detected in the lung and spleen, and the infections increased total BAL cell numbers due to neutrophilia, while relative BAL macrophage numbers declined (FIG. 19 panels A-O). […] Moreover, 24 h after infection, about 10^9 CFUs could be detected in murine whole lung homogenate.

[5] = tested on: immune cells from tracheal aspirates of ARDS/bacterial pneumonia patients; experiment: Thapsigargin-induced cytosolic Ca^2+ in immune cells from ARDS/bacterial pneumonia patients; type: cell-based, human; details: Fluo-4, 1 h exposure
Protocol: We next obtained tracheal aspirates from intubated ARDS/bacterial pneumonia patients. We immediately isolated immune cells from these samples and simultaneously loaded them with the Ca^2+ dye Fluo-4 and exposed them to vehicle, ELD607 or scrambled peptide for 1 h.

[6] = tested on: E. coli LPS; experiment: E. coli LPS sepsis model, intravenous ELD607; type: in vivo, mice; details: LPS intraperitoneally
Protocol: We injected mice intraperitoneally with E. coli LPS, followed by 0.5 mg/kg ELD607 injected intravenously 1 h later.

[7] = molecular target: T1, Orai1/store operated Ca^2+ influx (Homo sapiens, UniProt Q96D31); experiment: Store operated Ca^2+ influx in HEK293T cells (Example 2); type: cell-based; details: a6 and ELD607 combined
T1 construct: Endogenous Orai1/store operated Ca^2+ influx have been extensively studied in HEK293T cells; endogenous in cells; host or cells: HEK293T
T1 sequence (Q96D31 whole entry): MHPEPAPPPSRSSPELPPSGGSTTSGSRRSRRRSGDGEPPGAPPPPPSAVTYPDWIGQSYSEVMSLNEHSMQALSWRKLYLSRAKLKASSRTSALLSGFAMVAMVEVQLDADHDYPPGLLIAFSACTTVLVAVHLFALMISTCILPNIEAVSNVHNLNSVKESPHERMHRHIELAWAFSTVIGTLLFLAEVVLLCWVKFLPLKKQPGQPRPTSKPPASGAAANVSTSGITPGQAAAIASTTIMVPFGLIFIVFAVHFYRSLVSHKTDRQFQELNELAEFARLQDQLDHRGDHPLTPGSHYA
Description: Endogenous Orai1/store operated Ca^2+ influx have been extensively studied in HEK293T cells, so this cell type was used to understand ELD607-Orai1 interactions. […] Thapsigargin is a SERCA pump inhibitor that prevents uptake of cytosolic Ca^2+ into the endoplasmic reticulum. Thapsigargin is commonly used to stimulate Orai1/store operated Ca^2+ influx. […] Dynamic light scattering (DLS) was used to evaluate binding of ELD607 to peptides of Orai1 extracellular loops. […] Thus, it was concluded that ELD607 interacts with Orai1.

[8] = tested on: αSMA; experiment: αSMA expression in fibroblasts after three days of TGFβ (confocal microscopy); type: cell-based
Protocol: After three days of TGFβ induced αSMA deposition, ELD607 was then added for 24 h at 10 μM and αSMA expression was assessed by confocal microscopy. Data are shown as mean+/−SEM and data were analyzed by ANOVA.
FIG. 39A-39B show ELD607 reduces αSMA deposition. After three days of TGFβ induced αSMA deposition, ELD607 or other compounds (pirfenidone, nintedanib, zigovractin, YM-58483) were then added as indicated for 24 h at 10 μM. […] Data are shown as mean+/−SEM and data were analyzed by ANOVA.
In vitro Methods: Fibroblasts were exposed to 10 nM TFGβ for 3-7 days as indicated. Then, ELD607 was added overnight. Fibroblasts were then fixed in paraformaldehyde, stained with primary a smooth muscle actin (αSMA) antibody, and imaged by confocal microscopy. Myofibroblasts were exposed to ELD607 without any TGFβ pre-treatment. In some cases, Western blotting was used to probe for αSMA.
Fibroblasts were exposed to TGFβ for three days and then exposed to vehicle or the indicated compounds. Cells were then fixed, stained for αSMA, and expression measured by confocal microscopy.

[9] = 0.5 mg/kg intranasal, 24 h after infection

Sequence: VHDIVNMLIRG [ELD607, VHDIVNMLIRG]
- survival of βENaC overexpressing mice ([1]; daily intranasal 0.5 mg/kg): increased survival
- neutrophils in SCNN1B (βENaC) mice ([1]; daily intranasal 0.5 mg/kg, 11 days): significantly reduced lung neutrophilia; also recorded: significantly decreased BAL neutrophil levels
- BAL cells in WT littermate mice ([1]; daily intranasal, 11 days): no effect on WT mice
- cytotoxicity (calcein and propidium iodide) [2]: not significantly different to vehicle control
- transepithelial resistance ([2]; before and after treatment): No differences were found
- % of the initial dose detected in BAL [3]: ~10%
- % of the original dose detected in the blood [3]: less than 0.3%
- lung macrophage levels [4, 9]: significantly normalized lung macrophage levels
- neutrophilia [4, 9]: reduced neutrophilia
- reduction in lung bacteria ([4]; FIG. 19 panels D and I): 3-5 log10
- sepsis (spleen CFUs) ([4]; FIG. 19 panels E and J): significantly reduced sepsis
- overall outcomes ([4]; all three infections): significantly improved outcomes
- thapsigargin elevation of cytosolic Ca^2+ [5]: not after exposure to ELD607
- blood macrophages ([6]; 0.5 mg/kg intravenously): significantly increased blood macrophages
- blood neutrophilia ([6]; 0.5 mg/kg intravenously): significantly reduced blood neutrophilia
- weight loss ([6]; 0.5 mg/kg intravenously 1 h later): significant prevented weight loss
- additivity of inhibitory effects of a6 and ELD607 on thapsigargin-induced elevations in cytosolic Ca^2+ [7]: not additive
- reduction in αSMA versus pirfenidone, nintedanib, zigrocractin and YM-58483 ([8]; 10 μM, 24 h): significantly greater reduction in αSMA than all other compounds tested
- αSMA expression, dose dependence ([8]; TGFβ three days, then ELD607 24 h): dose-dependently reduced αSMA expression

Reference: patent US20250114430A1, “MODIFIED PEPTIDOMIMETICS AND METHODS OF USE” (The University of North Carolina at Chapel Hill, priority 2021, published 2025)
